“Also recorded” adds a separate entry of the source. Where two headings read alike, the source gives them in different places. Marks after values point to notes of the source that are not given here.
Experiments:
[1] = phase I two-part drug-drug interaction study, plasma pharmacokinetics (Example 1); type: in vivo, human; conditions: for Cmax / Tmax / AUC from 0 to 24 h / AUC(0-inf) / AUC(0-t) / half-life: male, human, plasma, oral
Text: The secondary objective was to provide additional information on the safety and tolerability of this dose regimen in healthy males.
This was a single center, non-randomized, DDI study in 35 (Part 1) and 38 (Part 2) healthy males. The key inclusion criterion was males aged 18 to 55 years (inclusive). […] In Part 2, co-administration with omeprazole was studied. The study design is illustrated in FIG. 1.
At least a 2-to 8-day washout occurred between each period to account for a minimum of 5 half-lives of the active moieties dosed in the preceding period.
Blood samples were collected into 6 mL K,EDTA tubes and were processed within 30 minutes of collection. The resultant plasma was then frozen within 90 minutes of collection and stored at […] until shipment to the bioanalytical laboratory.
For each comparison, PK parameters were natural log transformed and analyzed using mixed effect modeling with treatment included as a fixed effect and subject as a random effect. Adjusted geometric mean ratios (GMRs) and corresponding 90% CIs were calculated.

rat bone marrow = assay: in vivo rat bone marrow micronucleus assay
[2] = 200 mg belumosudil single dose + itraconazole
[3] = 200 mg belumosudil single dose + rabeprazole
[4] = 200 mg belumosudil single dose + rifampicin
[5] = 200 mg belumosudil single dose alone
[6] = coadministration of rabeprazole

## CC(C)NC(=O)COc1cccc(-c2nc(Nc3ccc4[nH]ncc4c3)c3ccccc3n2)c1 [Belumosudil, 2-{3-[4-(1H-indazol-5-ylamino)-2-quinazolinyl]phenoxy}-N-(propan-2-yl) acetamide]
[1]; [2]
  CL/F, arithmetic mean (SD): 318 (117) ^b mL/min
  CL/F, geometric mean (geometric CV %): 298 (38.1) ^b; mL/min
[1]; [3]
  CL/F, arithmetic mean (SD): 2480 (2410) ^d mL/min
  CL/F, geometric mean (geometric CV %): 1980 (65.8) ^d; mL/min
[1]; [4]
  CL/F, arithmetic mean (SD): 1400 (450) ^c mL/min
  CL/F, geometric mean (geometric CV %): 1330 (34.5) ^c; mL/min
[1]; [5]
  CL/F, arithmetic mean (SD): 385 (116) ^a mL/min
  CL/F, geometric mean (geometric CV %): 367 (33.3) ^a; mL/min
[1]; coadministration of itraconazole
  change in belumosudil exposure: no clinically meaningful effect; also recorded: No clinically relevant change
[1]; coadministration of omeprazole
  decrease in AUC0-24 vs belumosudil alone: 53%
  decrease in AUC vs belumosudil alone: 47%
  decrease in Cmax (first dose) vs belumosudil alone: 68%
[1]; [6]
  decrease in AUC vs belumosudil alone: 80%
  decrease in AUCinf vs belumosudil alone: ~80%
  decrease in AUClast vs belumosudil alone: ~82%
[1]; coadministration of rifampicin
  decrease in AUCinf vs belumosudil alone: ~72%
  decrease in AUClast vs belumosudil alone: ~72%
[1]; coadministration of rifampin
  decrease in AUC vs belumosudil alone: 72%
[1]; 200 mg belumosudil BID + omeprazole, first dose, read-out: Cmax, arithmetic mean (SD)
  Cmax: 893 ng/mL
[1]; 200 mg belumosudil BID + omeprazole, first dose, read-out: Cmax, geometric mean (geometric CV %)
  Cmax: 575 ng/mL
[1]; 200 mg belumosudil BID + omeprazole, first dose, read-out: Tmax, median (range)
  Tmax: 4 h
[1]; 200 mg belumosudil BID + omeprazole, second dose, read-out: Cmax, arithmetic mean (SD)
  Cmax: 1050 ng/mL
[1]; 200 mg belumosudil BID + omeprazole, second dose, read-out: Cmax, geometric mean (geometric CV %)
  Cmax: 903 ng/mL
[1]; 200 mg belumosudil BID + omeprazole, second dose, read-out: Tmax, median (range)
  Tmax: 17 h
[1]; 200 mg belumosudil BID + omeprazole, read-out: AUC0-24, arithmetic mean (SD)
  AUC from 0 to 24 h: 9100 ng·h/mL
[1]; 200 mg belumosudil BID + omeprazole, read-out: AUC0-24, geometric mean (geometric CV %)
  AUC from 0 to 24 h: 7970 ng·h/mL
[1]; 200 mg belumosudil BID + omeprazole, read-out: AUCinf, arithmetic mean (SD)
  AUC(0-inf): 11200 ng·h/mL
[1]; 200 mg belumosudil BID + omeprazole, read-out: AUCinf, geometric mean (geometric CV %)
  AUC(0-inf): 9880 ng·h/mL
[1]; 200 mg belumosudil BID + omeprazole, read-out: AUClast, arithmetic mean (SD)
  AUC(0-t): 10900 ng·h/mL
[1]; 200 mg belumosudil BID + omeprazole, read-out: AUClast, geometric mean (geometric CV %)
  AUC(0-t): 9680 ng·h/mL
[1]; 200 mg belumosudil BID + omeprazole, read-out: t1/2, arithmetic mean (SD) (converted)
  half-life: 6.55 h
[1]; 200 mg belumosudil BID + omeprazole, read-out: t1/2, geometric mean (geometric CV %) (converted)
  half-life: 6.16 h
[1]; 200 mg belumosudil single dose + itraconazole, read-out: AUC0-24, arithmetic mean (SD)
  AUC from 0 to 24 h: 11000 ng·h/mL
[1]; 200 mg belumosudil single dose + itraconazole, read-out: AUC0-24, geometric mean (geometric CV %)
  AUC from 0 to 24 h: 10400 ng·h/mL
[1]; 200 mg belumosudil single dose + itraconazole, read-out: AUCinf, arithmetic mean (SD)
  AUC(0-inf): 11900 ng·h/mL
[1]; 200 mg belumosudil single dose + itraconazole, read-out: AUCinf, geometric mean (geometric CV %)
  AUC(0-inf): 11200 ng·h/mL
[1]; 200 mg belumosudil single dose + itraconazole, read-out: AUClast, arithmetic mean (SD)
  AUC(0-t): 11600 ng·h/mL
[1]; 200 mg belumosudil single dose + itraconazole, read-out: AUClast, geometric mean (geometric CV %)
  AUC(0-t): 10900 ng·h/mL
[1]; 200 mg belumosudil single dose + itraconazole, read-out: Cmax, arithmetic mean (SD)
  Cmax: 2230 ng/mL
[1]; 200 mg belumosudil single dose + itraconazole, read-out: Cmax, geometric mean (geometric CV %)
  Cmax: 2130 ng/mL
[1]; 200 mg belumosudil single dose + itraconazole, read-out: Tmax, median (range)
  Tmax: 3 h
[1]; 200 mg belumosudil single dose + itraconazole, read-out: t1/2, arithmetic mean (SD) (converted)
  half-life: 8.79 h
[1]; 200 mg belumosudil single dose + itraconazole, read-out: t1/2, geometric mean (geometric CV %) (converted)
  half-life: 8.27 h
[1]; 200 mg belumosudil single dose + rabeprazole, read-out: AUC0-24, arithmetic mean (SD)
  AUC from 0 to 24 h: 1730 ng·h/mL
[1]; 200 mg belumosudil single dose + rabeprazole, read-out: AUC0-24, geometric mean (geometric CV %)
  AUC from 0 to 24 h: 1510 ng·h/mL
[1]; 200 mg belumosudil single dose + rabeprazole, read-out: AUCinf, arithmetic mean (SD)
  AUC(0-inf): 1940 ng·h/mL
[1]; 200 mg belumosudil single dose + rabeprazole, read-out: AUCinf, geometric mean (geometric CV %)
  AUC(0-inf): 1680 ng·h/mL
[1]; 200 mg belumosudil single dose + rabeprazole, read-out: AUClast, arithmetic mean (SD)
  AUC(0-t): 1850 ng·h/mL
[1]; 200 mg belumosudil single dose + rabeprazole, read-out: AUClast, geometric mean (geometric CV %)
  AUC(0-t): 1580 ng·h/mL
[1]; 200 mg belumosudil single dose + rabeprazole, read-out: Cmax, arithmetic mean (SD)
  Cmax: 262 ng/mL
[1]; 200 mg belumosudil single dose + rabeprazole, read-out: Cmax, geometric mean (geometric CV %)
  Cmax: 227 ng/mL
[1]; 200 mg belumosudil single dose + rabeprazole, read-out: Tmax, median (range)
  Tmax: 5 h
[1]; 200 mg belumosudil single dose + rabeprazole, read-out: t1/2, arithmetic mean (SD) (converted)
  half-life: 10.4 h
[1]; 200 mg belumosudil single dose + rabeprazole, read-out: t1/2, geometric mean (geometric CV %) (converted)
  half-life: 7.8 h
[1]; 200 mg belumosudil single dose + rifampicin, read-out: AUC0-24, arithmetic mean (SD)
  AUC from 0 to 24 h: 2630 ng·h/mL
[1]; 200 mg belumosudil single dose + rifampicin, read-out: AUC0-24, geometric mean (geometric CV %)
  AUC from 0 to 24 h: 2490 ng·h/mL
[1]; 200 mg belumosudil single dose + rifampicin, read-out: AUCinf, arithmetic mean (SD)
  AUC(0-inf): 2640 ng·h/mL
[1]; 200 mg belumosudil single dose + rifampicin, read-out: AUCinf, geometric mean (geometric CV %)
  AUC(0-inf): 2500 ng·h/mL
[1]; 200 mg belumosudil single dose + rifampicin, read-out: AUClast, arithmetic mean (SD)
  AUC(0-t): 2580 ng·h/mL
[1]; 200 mg belumosudil single dose + rifampicin, read-out: AUClast, geometric mean (geometric CV %)
  AUC(0-t): 2440 ng·h/mL
[1]; 200 mg belumosudil single dose + rifampicin, read-out: Cmax, arithmetic mean (SD)
  Cmax: 753 ng/mL
[1]; 200 mg belumosudil single dose + rifampicin, read-out: Cmax, geometric mean (geometric CV %)
  Cmax: 712 ng/mL
[1]; 200 mg belumosudil single dose + rifampicin, read-out: Tmax, median (range)
  Tmax: 3 h
[1]; 200 mg belumosudil single dose + rifampicin, read-out: t1/2, arithmetic mean (SD) (converted)
  half-life: 2.36 h
[1]; 200 mg belumosudil single dose + rifampicin, read-out: t1/2, geometric mean (geometric CV %) (converted)
  half-life: 2.17 h
[1]; 200 mg, 200 mg belumosudil BID alone, first dose, read-out: Cmax, arithmetic mean (SD)
  Cmax: 1880 ng/mL
[1]; 200 mg, 200 mg belumosudil BID alone, first dose, read-out: Cmax, geometric mean (geometric CV %)
  Cmax: 1790 ng/mL
[1]; 200 mg, 200 mg belumosudil BID alone, first dose, read-out: Tmax, median (range)
  Tmax: 3 h
[1]; 200 mg, 200 mg belumosudil BID alone, second dose, read-out: Cmax, arithmetic mean (SD)
  Cmax: 1870 ng/mL
[1]; 200 mg, 200 mg belumosudil BID alone, second dose, read-out: Cmax, geometric mean (geometric CV %)
  Cmax: 1760 ng/mL
[1]; 200 mg, 200 mg belumosudil BID alone, second dose, read-out: Tmax, median (range)
  Tmax: 15 h
[1]; 200 mg, 200 mg belumosudil BID alone, read-out: AUC0-24, arithmetic mean (SD)
  AUC from 0 to 24 h: 17900 ng·h/mL
[1]; 200 mg, 200 mg belumosudil BID alone, read-out: AUC0-24, geometric mean (geometric CV %)
  AUC from 0 to 24 h: 16800 ng·h/mL
[1]; 200 mg, 200 mg belumosudil BID alone, read-out: AUCinf, arithmetic mean (SD)
  AUC(0-inf): 20100 ng·h/mL
[1]; 200 mg, 200 mg belumosudil BID alone, read-out: AUCinf, geometric mean (geometric CV %)
  AUC(0-inf): 18800 ng·h/mL
[1]; 200 mg, 200 mg belumosudil BID alone, read-out: AUClast, arithmetic mean (SD)
  AUC(0-t): 20300 ng·h/mL
[1]; 200 mg, 200 mg belumosudil BID alone, read-out: AUClast, geometric mean (geometric CV %)
  AUC(0-t): 18900 ng·h/mL
[1]; 200 mg, 200 mg belumosudil BID alone, read-out: t1/2, arithmetic mean (SD) (converted)
  half-life: 7.15 h
[1]; 200 mg, 200 mg belumosudil BID alone, read-out: t1/2, geometric mean (geometric CV %) (converted)
  half-life: 6.86 h
[1]; 200 mg, 200 mg belumosudil single dose alone, read-out: AUC0-24, arithmetic mean (SD)
  AUC from 0 to 24 h: 8830 ng·h/mL
[1]; 200 mg, 200 mg belumosudil single dose alone, read-out: AUC0-24, geometric mean (geometric CV %)
  AUC from 0 to 24 h: 8430 ng·h/mL
[1]; 200 mg, 200 mg belumosudil single dose alone, read-out: AUCinf, arithmetic mean (SD)
  AUC(0-inf): 9580 ng·h/mL
[1]; 200 mg, 200 mg belumosudil single dose alone, read-out: AUCinf, geometric mean (geometric CV %)
  AUC(0-inf): 9080 ng·h/mL
[1]; 200 mg, 200 mg belumosudil single dose alone, read-out: AUClast, arithmetic mean (SD)
  AUC(0-t): 9220 ng·h/mL
[1]; 200 mg, 200 mg belumosudil single dose alone, read-out: AUClast, geometric mean (geometric CV %)
  AUC(0-t): 8750 ng·h/mL
[1]; 200 mg, 200 mg belumosudil single dose alone, read-out: Cmax, arithmetic mean (SD)
  Cmax: 1850 ng/mL
[1]; 200 mg, 200 mg belumosudil single dose alone, read-out: Cmax, geometric mean (geometric CV %)
  Cmax: 1770 ng/mL
[1]; 200 mg, 200 mg belumosudil single dose alone, read-out: Tmax, median (range)
  Tmax: 3 h
[1]; 200 mg, 200 mg belumosudil single dose alone, read-out: t1/2, arithmetic mean (SD) (converted)
  half-life: 9.28 h
[1]; 200 mg, 200 mg belumosudil single dose alone, read-out: t1/2, geometric mean (geometric CV %) (converted)
  half-life: 7.89 h
[1]; coadministration of rabeprazole, read-out: delay of median Tmax
  Tmax: 2 h
Rat bone marrow
  genotoxicity: not genotoxic

Source: patent publication US20240350493A1 (Kadmon Corporation, LLC, priority 2022, published 2024)
